Activity calls are given as the source filed them. No cut-off for these calls is given here.
Key:
[1] = tested on: DU-145; test: Cytotoxicity against human DU145 cancer stem cell spheroids assessed as reduction in cell viability up to 20 uM after 3 to 5 days by MTS assay; format: functional, cell-based
[2] = tested on: BT-474; test: Cytotoxicity against human BT474 cancer stem cell spheroids assessed as reduction in cell viability up to 20 uM after 3 to 5 days by MTS assay; format: functional, cell-based
[3] = tested on: DU-145; test: Disruption of preformed spheroids in human DU145 cancer stem cells at 20 uM after 3 days by microscopic analysis; format: functional, cell-based
[4] = tested on: BT-474; test: Disruption of preformed spheroids in human BT474 cancer stem cells at 20 uM after 3 days by microscopic analysis; format: functional, cell-based
[5] = tested on: BT-474; test: Cytotoxicity against human BT474 cells after 48 hrs by MTS assay; format: functional; settings: BT-474, 48 h
[6] = tested on: DU-145; test: Cytotoxicity against human DU145 cells after 48 hrs by MTS assay; format: functional; settings: DU-145, 48 h
[7] = tested on: PC-3; test: Cytotoxicity against human PC3 cells after 48 hrs by MTS assay; format: functional; settings: PC-3, 48 h
[8] = tested on: MIA PaCa-2; test: Cytotoxicity against human MIAPaCa2 cells after 48 hrs by MTS assay; format: functional; settings: MIA PaCa-2, 48 h
[9] = tested on: JIMT-1; test: Cytotoxicity against human JIMT1 cells after 48 hrs by MTS assay; format: functional; settings: JIMT-1, 48 h
[10] = tested on: MDA-MB-231; test: Cytotoxicity against human MDA-MB-231 cells after 48 hrs by MTS assay; format: functional; settings: MDA-MB-231, 48 h
[11] = tested on: DU-145; test: Cytotoxicity against human DU145 cancer stem cell spheroids assessed as reduction in cell viability at 5 to 10 uM after 5 to 6 days by MTS assay; format: functional
[12] = tested on: BT-474; test: Disruption of preformed spheroids in human BT474 cancer stem cells at 5 to 10 uM after 4 days by microscopic analysis; format: functional
[13] = tested on: DU-145; test: Cytotoxicity against human DU145 cancer stem cell spheroids assessed as reduction in cell viability at 5 uM after 5 to 6 days by MTS assay; format: functional
[14] = tested on: BT-474; test: Cytotoxicity against human BT474 cancer stem cell spheroids assessed as reduction in cell viability at 5 to 10 uM after 5 to 6 days by MTS assay; format: functional
[15] = tested on: DU-145; test: Disruption of preformed spheroids in human DU145 cancer stem cells at 5 to 10 uM after 4 days by microscopic analysis; format: functional
[16] = tested on: BT-474; test: Cytotoxicity against human BT474 cancer stem cell spheroids assessed as reduction in cell viability at 5 uM after 5 to 6 days by MTS assay; format: functional
[17] = tested on: MDA-MB-231; test: Potency index, ratio of salinomycin CC50 to test compound CC50 for human MDA-MB-231 cells; format: functional
[18] = tested on: MIA PaCa-2; test: Potency index, ratio of salinomycin CC50 to test compound CC50 for human MIAPaCa2 cells; format: functional
[19] = tested on: BT-474; test: Potency index, ratio of salinomycin CC50 to test compound CC50 for human BT474 cells; format: functional
[20] = tested on: DU-145; test: Potency index, ratio of salinomycin CC50 to test compound CC50 for human DU145 cells; format: functional
[21] = tested on: BT-474; test: Disruption of preformed spheroids in human BT474 cancer stem cells at 7.5 uM after 3 days by microscopic analysis; format: functional, cell-based
[22] = tested on: DU-145; test: Disruption of preformed spheroids in human DU145 cancer stem cells at 7.5 uM after 3 days by microscopic analysis; format: functional, cell-based

| SMILES | CC50 [5] [µM] | CC90 [5] [µM] | CC50 [6] [µM] | CC90 [6] [µM] | CC50 [7] [µM] | CC90 [7] [µM] | CC50 [8] [µM] | CC90 [8] [µM] | CC50 [9] [µM] | CC90 [9] [µM] | CC50 [10] [µM] | CC90 [10] [µM] | further results |
| --- | --- | --- | --- | --- | --- | --- | --- | --- | --- | --- | --- | --- | --- |
| CCCCCCCCCCCCCCN |  |  |  |  |  |  |  |  |  |  |  |  | Activity [1]: inactive; Activity [2]: inactive; Activity [3]: inactive; Activity [4]: inactive |
| CCCCCCCCCCCCCCCCOC[C@H](CN=[N+]=[N-])O[C@@H]1O[C@H](CO)[C@@H](O)[C@H](O)[C@H]1N | 22 | 28 | 12.5 | 18 | 6 | 15 | 11.5 | 18.5 | 9.5 | 13.5 | 11 | 15 |  |
| CCCCCCCCCCCCCCCCOC[C@H](CO[C@@H]1O[C@H](CO)[C@@H](O)[C@H](O)[C@H]1N)NC(=O)CCCCCCCCCCCCCCC |  |  |  |  |  |  |  |  |  |  | > 30 |  |  |
| CCCCCCCCCCCCCCCCOCCCO[C@@H]1O[C@H](CN)[C@@H](O)[C@H](O)[C@H]1N | 8.5 | 17.5 | 6 | 8.5 | 8 | 14 | 6.5 | 13 | 4 | 6 | 4.5 | 7 | Activity [11]: 100%; Activity [12]: 100%; Activity [13]: >95%; Activity [14]: 100%; Activity [15]: 100%; Activity [16]: >95% |
| CCCCCCCCCCCCCCCCOC[C@@H](CO[C@H]1O[C@H](CN)[C@@H](O)[C@H](O)[C@H]1N)OC | 7.5 | 9.5 | 5.2 | 7.4 | 3.5 | 6 | 3.5 | 6.5 | 3.5 | 4.9 | 3 | 4.5 | Ratio [17]: >6; Activity [11]: 100%; Ratio [18]: 2; Activity [12]: 100%; Activity [13]: >95%; Activity [14]: 100%; Activity [15]: 100%; Ratio [19]: 2; Ratio [20]: >4; Activity [16]: >95% |
| O=C(O)CCCc1ccc(N(CCCl)CCCl)cc1 [CHLORAMBUCIL] |  |  |  |  |  |  |  |  |  |  | > 150 |  |  |
| CC[C@@H](C(=O)[C@@H](C)[C@@H](O)[C@H](C)[C@@H]1O[C@@H]([C@@H](CC)C(=O)O)CC[C@@H]1C)[C@H]1O[C@]2(C=C[C@@H](O)[C@]3(CC[C@@](C)([C@H]4CC[C@](O)(CC)[C@H](C)O4)O3)O2)[C@H](C)C[C@@H]1C [SALINOMYCIN] | 14 |  | > 20 |  |  |  | 6.5 |  |  |  | > 20 |  | Activity [21]: Active; Activity [22]: Active |
| CCCCCCCCCCCCCCCCOC[C@H](CO[C@@H]1O[C@H](CN)[C@@H](O)[C@H](O)[C@H]1N)O[C@@H]1O[C@H](CN)[C@@H](O)[C@H](O)[C@H]1N |  |  |  |  |  |  |  |  |  |  | > 30 |  |  |
| CCCCCCCCCCCCCCCCOC[C@@H](N)CO[C@@H]1O[C@H](CO)[C@@H](O)[C@H](O)[C@H]1N | 15.5 | 28 | 6 | 9 | 9 | 14 | 8.5 | 14 | 5.5 | 7.5 | 6 | 9 | Activity [11]: 100%; Activity [12]: 100%; Activity [14]: 100%; Activity [15]: 100% |
| CCCCCCCCCCCCCCCCOC[C@H](CN)O[C@@H]1O[C@H](CO)[C@@H](O)[C@H](O)[C@H]1N | 25 | > 30 | 17.5 | 25 | 9.5 | 17 | 15 | 28 | 14 | 19 | 12 | 17.5 |  |
| CCCCCCCCCCCCCCCCOC[C@@H](CO[C@@H]1O[C@H](CN)[C@@H](O)[C@H](O)[C@H]1N)OC | 11.5 | 14 | 6 | 8.5 | 11 | 14 | 7 | 12 | 4.2 | 6.5 | 5.5 | 7 | Activity [11]: 100%; Activity [12]: 100%; Activity [14]: 100%; Activity [15]: 100% |
| CCCCCCCCCCCCCCCCOC[C@@H](CO[C@@H]1O[C@H](CO)[C@@H](O)[C@H](O)[C@H]1N)OC | 8 | 13 | 10 | 15 | 13.5 | 28 | 9 | 18 | 9 | 16 |  |  |  |
| CCCCCCCCCCCCCCCCOC[C@H](CO[C@@H]1O[C@H](CO)[C@@H](O)[C@H](O)[C@H]1N)NC(=O)OC | 23 | 29 | 14 | 19 | 20 | 29 | 18 | 29 | 12.5 | 15 | 16 | 19 |  |
| CCCCCCCCCCCCCCCCOC[C@@H](CO[C@@H]1O[C@H](CN)[C@@H](O)[C@H](O)[C@H]1N1C(=O)c2ccccc2C1=O)OC |  |  | > 30 |  | 15 |  |  |  |  |  | 20 |  |  |

Reference: ChEMBL document CHEMBL4190163 (2016)
